Read-outs that look alike come from different tables or passages of the source.
Assays:
in vitro = settings: human
[1] = tested on: human beta-coronavirus OC43; test: OC43 Coronavirus Assay in HeLa cells (antiviral, cytopathic effect, cell-titer-glo); assay type: cell-based; settings: Betacoronavirus 1, OC43, HeLa, Table B; OC43 coronavirus in HeLa cells, class symbols; read-out: EC50
[2] = Cytotoxicity in HeLa cells without addition of OC43 virus (in parallel); settings: human, HeLa cells, without OC43 virus
[3] = tested on: SARS-CoV-2 B.1.1.7 lineage; test: microbe, parasite or virus in culture; assay type: cell-based; settings: Severe acute respiratory syndrome coronavirus 2, Table C, SARS-CoV-2 B.1.1.7 in A549-dual_ACE2_TMPRSS2 cells, read-out: A549-dual_ACE2_TMPRSS2 (EC50)
SARS-Cov-2 3CLpro = SARS-Cov-2 3CLpro (Severe acute respiratory syndrome coronavirus 2, UniProt P0DTD1); test: biochemical; settings: Table A, class symbols, read-out: SARS-Cov-2 (IC50)

CC(C)C[C@@H](C(=O)N1C[C@@]2(C[C@H]1C#N)N=C(C1CC1)NC2=O)N(C)C(=O)[C@H](C)NC(=O)C(F)(F)F [Compound 16]
CC50 (in vitro): > 1 µM | EC50 [1]: 0.1 to 1 µM | CC50 at 6 days [2]: > 10 µM | EC50 ([3]; cells given as a bound): > 1 µM | IC50 (SARS-Cov-2 3CLpro): 0.02 to 0.2 µM

CC1=N[C@@]2(C[C@@H](C#N)N(C(=O)[C@H](CC(C)C)N(C)C(=O)[C@H](C)NC(=O)C(F)(F)F)C2)C(=O)N1 [Compound 18]
CC50 (in vitro): > 1 µM | EC50 [1]: 1 to 10 µM | CC50 at 6 days [2]: > 10 µM | EC50 ([3]; cells given as a bound): > 1 µM | IC50 (SARS-Cov-2 3CLpro): 0.02 to 0.2 µM

CC(C)C[C@@H](C(=O)N1C[C@@]2(C[C@H]1C#N)CC1(CCCC1)NC2=O)N(C)C(=O)[C@H](C)NC(=O)C(F)(F)F [Compound 19]
CC50 (in vitro): > 1 µM | EC50 [1]: 0.1 to 1 µM | CC50 at 6 days [2]: > 10 µM | EC50 ([3]; class symbols): 0.1 to 1 µM | IC50 (SARS-Cov-2 3CLpro): 0.02 to 0.2 µM

CC(C)C[C@@H](C(=O)N1C[C@]2(CCC3(CC3)NC2=O)C[C@H]1C#N)N(C)C(=O)[C@H](C)NC(=O)C(F)(F)F [Compound 20]
CC50 (in vitro): > 1 µM | EC50 [1]: 1 to 10 µM | CC50 at 6 days [2]: > 10 µM | EC50 ([3]; class symbols): 0.1 to 1 µM | IC50 (SARS-Cov-2 3CLpro): 0.02 to 0.2 µM

CC(C)C[C@@H](C(=O)N1C[C@]2(CC(C)NC2=O)C[C@H]1C#N)N(C)C(=O)[C@H](C)NC(=O)C(F)(F)F (stereo partly drawn) [Compound 21, (2S)—N-((2S)-1-((3S,5S)-3-cyano-8-methyl-6-oxo-2,7-diazaspiro[4.4]nonan-2-yl)-4-methyl-1-oxopentan-2-yl)-N-methyl-2-(2,2,2-trifluoroacetamido)propanamide]
CC50 (in vitro): > 1 µM | EC50 [1]: 0.1 to 1 µM | CC50 at 6 days [2]: > 10 µM | EC50 ([3]; class symbols): 0.1 to 1 µM | IC50 (SARS-Cov-2 3CLpro): < 0.02 µM

CC(C)C[C@@H](C(=O)N1C[C@@]2(C[C@H]1C#N)CC(C)(C)NC2=O)N(C)C(=O)[C@H](C)NC(=O)C(F)(F)F [Compound 22]
CC50 (in vitro): > 1 µM | EC50 [1]: 1 to 10 µM | CC50 at 6 days [2]: > 10 µM | EC50 ([3]; cells given as a bound): > 1 µM | IC50 (SARS-Cov-2 3CLpro): 0.02 to 0.2 µM

CCC1C[C@@]2(C[C@@H](C#N)N(C(=O)[C@H](CC(C)C)N(C)C(=O)[C@H](C)NC(=O)C(F)(F)F)C2)C(=O)N1 (stereo partly shown) [Compound 23]
CC50 (in vitro): > 1 µM | EC50 [1]: 0.1 to 1 µM | CC50 at 6 days [2]: > 10 µM | EC50 ([3]; class symbols): 0.1 to 1 µM | IC50 (SARS-Cov-2 3CLpro): < 0.02 µM

CC(C)C[C@@H](C(=O)N1C[C@]2(CC(c3ccccc3)NC2=O)C[C@H]1C#N)N(C)C(=O)[C@H](C)NC(=O)C(F)(F)F (stereo partly shown) [Compound 24]
CC50 (in vitro): > 1 µM | EC50 [1]: 1 to 10 µM | CC50 at 6 days [2]: > 10 µM | EC50 ([3]; class symbols): 0.1 to 1 µM | IC50 (SARS-Cov-2 3CLpro): < 0.02 µM

CC(C)C[C@@H](C(=O)N1C[C@]2(C[C@H]1C#N)C(=O)Nc1cc(-c3ccccc3)nn12)N(C)C(=O)[C@H](C)NC(=O)C(F)(F)F [Compound 25, (S)—N—((S)-1-((3R,5'S)-5′-cyano-2-oxo-6-phenyl-1,2-dihydrospiro[imidazo[1,2-b]pyrazole-3,3′-pyrrolidin]-1′-yl)-4-methyl-1-oxopentan-2-yl)-N-methyl-2-(2,2,2-trifluoroacetamido)propanamide]
CC50 (in vitro): > 1 µM | EC50 [1]: 0.1 to 1 µM | CC50 at 6 days [2]: > 10 µM | EC50 ([3]; class symbols): 0.1 to 1 µM | IC50 (SARS-Cov-2 3CLpro): 0.02 to 0.2 µM

CC(C)C[C@@H](C(=O)N1C[C@]2(C[C@H]1C#N)C(=O)Nc1cc(Br)nn12)N(C)C(=O)[C@H](C)NC(=O)C(F)(F)F [Compound 26, (2S)—N-[(2S)-1-[(3R,5'S)-6-bromo-5′-cyano-2-oxo-1H-spiro[pyrazolo[1,5-a]imidazole-3,3′-pyrrolidin]-1′-yl]-4-methyl-1-oxopentan-2-yl]-N-methyl-2-(2,2,2-trifluoroacetamido)propanamide]
CC50 (in vitro): > 1 µM | EC50 [1]: 0.1 to 1 µM | CC50 at 6 days [2]: > 10 µM | EC50 ([3]; cells given as a bound): > 1 µM | IC50 (SARS-Cov-2 3CLpro): 0.02 to 0.2 µM

CC(C)C[C@@H](C(=O)N1C[C@@]2(C[C@H]1C#N)N=C(C(C)(C)C)NC2=O)N(C)C(=O)[C@H](C)NC(=O)C(F)(F)F [Compound 47]
CC50 (in vitro): > 1 µM | EC50 [1]: 1 to 10 µM | CC50 at 6 days [2]: > 10 µM | EC50 ([3]; class symbols): 0.1 to 1 µM | IC50 (SARS-Cov-2 3CLpro): 0.02 to 0.2 µM

CC(C)C[C@@H](C(=O)N1C[C@@]2(C[C@H]1C#N)Oc1cc(F)c(F)cc1NC2=O)N(C)C(=O)[C@H](C)NC(=O)C(F)(F)F [Compound 48]
CC50 (in vitro): > 1 µM | EC50 [1]: 0.1 to 1 µM | CC50 at 6 days [2]: > 10 µM | EC50 ([3]; class symbols): 0.1 to 1 µM | IC50 (SARS-Cov-2 3CLpro): < 0.02 µM

CC(C)C[C@@H](C(=O)N1C[C@@]2(C[C@H]1C#N)Oc1c(F)cc(F)cc1NC2=O)N(C)C(=O)[C@H](C)NC(=O)C(F)(F)F [Compound 49]
CC50 (in vitro): > 1 µM | EC50 [1]: 0.1 to 1 µM | CC50 at 6 days [2]: > 10 µM | EC50 ([3]; class symbols): 0.1 to 1 µM | IC50 (SARS-Cov-2 3CLpro): < 0.02 µM

CN(C(=O)[C@H](CC1CC1)NC(=O)C(F)(F)F)[C@@H](CC1CC1)C(=O)N1C[C@@]2(C[C@H]1C#N)Oc1cc(F)ccc1NC2=O [Compound 50]
CC50 (in vitro): > 1 µM | EC50 [1]: < 0.1 µM | CC50 at 6 days [2]: > 10 µM | EC50 ([3]; class symbols): < 0.1 µM | IC50 (SARS-Cov-2 3CLpro): < 0.02 µM

CC(C)C[C@@H](C(=O)N1C[C@@]2(CC1C#N)Oc1cc(F)cc(F)c1NC2=O)N(C)C(=O)[C@H](C)NC(=O)C(F)(F)F (stereo partly shown) [Compound 51]
CC50 (in vitro): > 1 µM | EC50 [1]: 0.1 to 1 µM | CC50 at 6 days [2]: > 10 µM | EC50 ([3]; class symbols): 0.1 to 1 µM | IC50 (SARS-Cov-2 3CLpro): < 0.02 µM

CN(C(=O)[C@H](CC1CC1)NC(=O)C(F)(F)F)[C@@H](CC1CC1)C(=O)N1C[C@@]2(C[C@H]1C#N)Oc1ccc(F)c(F)c1NC2=O [Compound 52]
CC50 (in vitro): > 1 µM | EC50 [1]: < 0.1 µM | CC50 at 6 days [2]: > 10 µM | EC50 ([3]; class symbols): < 0.1 µM | IC50 (SARS-Cov-2 3CLpro): < 0.02 µM

CN(C(=O)[C@@H](NC(=O)C(F)(F)F)C(C)(C)C)[C@@H](CC1CC1)C(=O)N1C[C@@]2(C[C@H]1C#N)Oc1cc(F)cc(F)c1NC2=O [Compound 53]
CC50 (in vitro): > 1 µM | EC50 [1]: 0.1 to 1 µM | CC50 at 6 days [2]: > 10 µM | EC50 ([3]; class symbols): 0.1 to 1 µM | IC50 (SARS-Cov-2 3CLpro): < 0.02 µM

CN(C(=O)[C@H](CC1CC1)NC(=O)C(F)(F)F)[C@@H](CC(C)(C)F)C(=O)N1C[C@@]2(CC1C#N)Oc1cc(F)cc(F)c1NC2=O (stereo partly shown) [Compound 54]
CC50 (in vitro): > 1 µM | EC50 [1]: < 0.1 µM | CC50 at 6 days [2]: > 10 µM | EC50 ([3]; class symbols): 0.1 to 1 µM | IC50 (SARS-Cov-2 3CLpro): < 0.02 µM

CN(C(=O)[C@H](CC1CC1)NC(=O)C(F)(F)F)[C@@H](CC1CC1)C(=O)N1C[C@@]2(C[C@H]1C#N)Oc1cc(F)cc(F)c1NC2=O [Compound 55]
CC50 (in vitro): > 1 µM | EC50 [1]: < 0.1 µM | CC50 at 6 days [2]: > 10 µM | EC50 ([3]; class symbols): < 0.1 µM | IC50 (SARS-Cov-2 3CLpro): < 0.02 µM

CN(C(=O)[C@H](CC1CC1)NC(=O)C(F)(F)F)[C@@H](CC1CC1)C(=O)N1C[C@@]2(C[C@H]1C#N)Oc1cccc(F)c1NC2=O [Compound 56]
CC50 (in vitro): > 1 µM | EC50 [1]: < 0.1 µM | CC50 at 6 days [2]: > 10 µM | EC50 ([3]; class symbols): < 0.1 µM | IC50 (SARS-Cov-2 3CLpro): < 0.02 µM

CN(C(=O)[C@H](CC1CC1)NC(=O)C(F)(F)F)[C@@H](CC1CC1)C(=O)N1C[C@@]2(C[C@H]1C#N)Oc1c(F)ccc(F)c1NC2=O [Compound 57]
CC50 (in vitro): > 1 µM | EC50 [1]: < 0.1 µM | CC50 at 6 days [2]: > 10 µM | EC50 ([3]; class symbols): < 0.1 µM | IC50 (SARS-Cov-2 3CLpro): < 0.02 µM

CC(C)C[C@@H](C(=O)N1C[C@@]2(C[C@H]1C#N)Oc1cc(Cl)cc(F)c1NC2=O)N(C)C(=O)[C@H](C)NC(=O)C(F)(F)F [Compound 58]
CC50 (in vitro): > 1 µM | EC50 [1]: 0.1 to 1 µM | CC50 at 6 days [2]: > 10 µM | EC50 ([3]; class symbols): 0.1 to 1 µM | IC50 (SARS-Cov-2 3CLpro): < 0.02 µM

CN(C(=O)[C@H](CC1CC1)NC(=O)C(F)(F)F)[C@@H](CC1CC1)C(=O)N1C[C@@]2(C[C@H]1C#N)Oc1cc(Cl)cc(F)c1NC2=O [Compound 59]
CC50 (in vitro): > 1 µM | EC50 [1]: < 0.1 µM | CC50 at 6 days [2]: > 10 µM | EC50 ([3]; class symbols): < 0.1 µM | IC50 (SARS-Cov-2 3CLpro): < 0.02 µM

— patent US20240199647A1, “ANTI-VIRAL COMPOUNDS” (Aligos Therapeutics, Inc., priority 2022, published 2024)
